Laboratory results published in PubChem BioAssay (NCI).
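Test compounds were applied to cells in 96-well plates for 48 hours at 5 doses. GI50 marks 50% less growth. TGI: total growth inhibition.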

Assays:
Experiment in all cases: NCI tumour cell line growth inhibition, 48 h
SF-539 CNS = tested on: SF-539 CNS
SW-620 colon = tested on: SW-620 colon
SK-OV-3 ovarian = tested on: SK-OV-3 ovarian
HCC-2998 colon = tested on: HCC-2998 colon
SN12C renal = tested on: SN12C renal
KM12 colon = tested on: KM12 colon
NCI-H226 lung = tested on: NCI-H226 lung
MOLT-4 leukemia = tested on: MOLT-4 leukemia
OVCAR-5 ovarian = tested on: OVCAR-5 ovarian
OVCAR-3 ovarian = tested on: OVCAR-3 ovarian
LOX IMVI melanoma = tested on: LOX IMVI melanoma
RPMI-8226 leukemia = tested on: RPMI-8226 leukemia
NCI-H460 lung = tested on: NCI-H460 lung
T-47D breast = tested on: T-47D breast
MCF7 breast = tested on: MCF7 breast
EKVX NSCLC = tested on: EKVX NSCLC
NCI/ADR-RES ovarian = tested on: NCI/ADR-RES ovarian
SNB-19 CNS = tested on: SNB-19 CNS
DU-145 prostate = tested on: DU-145 prostate
U251 CNS = tested on: U251 CNS
MDA-MB-231 breast = tested on: MDA-MB-231 breast
MDA-MB-435 = tested on: MDA-MB-435
IGROV1 ovarian = tested on: IGROV1 ovarian
UACC-62 melanoma = tested on: UACC-62 melanoma
A549 NSCLC = tested on: A549 NSCLC
HCT-116 colon = tested on: HCT-116 colon
SF-295 CNS = tested on: SF-295 CNS
CAKI-1 renal = tested on: CAKI-1 renal
SNB-75 CNS = tested on: SNB-75 CNS
TK-10 renal = tested on: TK-10 renal
786-0 renal = tested on: 786-0 renal
OVCAR-8 ovarian = tested on: OVCAR-8 ovarian
HL-60(TB) leukemia = tested on: HL-60(TB) leukemia
SK-MEL-2 melanoma = tested on: SK-MEL-2 melanoma
HS 578T breast = tested on: HS 578T breast
SK-MEL-5 melanoma = tested on: SK-MEL-5 melanoma
ACHN renal = tested on: ACHN renal
HOP-62 NSCLC = tested on: HOP-62 NSCLC
RXF 393 renal = tested on: RXF 393 renal
SF-268 CNS = tested on: SF-268 CNS
NCI-H522 lung = tested on: NCI-H522 lung
COLO 205 colon = tested on: COLO 205 colon
HCT-15 colon = tested on: HCT-15 colon
BT-549 breast = tested on: BT-549 breast
A498 renal = tested on: A498 renal
CCRF-CEM leukemia = tested on: CCRF-CEM leukemia
PC-3 prostate = tested on: PC-3 prostate
HT29 colon = tested on: HT29 colon
SK-MEL-28 melanoma = tested on: SK-MEL-28 melanoma
UACC-257 melanoma = tested on: UACC-257 melanoma
K-562 leukemia = tested on: K-562 leukemia
M14 melanoma = tested on: M14 melanoma
UO-31 renal = tested on: UO-31 renal
OVCAR-4 ovarian = tested on: OVCAR-4 ovarian
MALME-3M melanoma = tested on: MALME-3M melanoma
NCI-H23 lung = tested on: NCI-H23 lung
HOP-92 NSCLC = tested on: HOP-92 NSCLC

## N#Cc1cc2c(cc1Cl)SC(=Nc1ccccc1)N(S(=O)(=O)c1ccc(Cl)cc1)S2(=O)=O
SF-539 CNS
  GI50: 19.8 µM
  TGI: 39.8 µM
SW-620 colon
  GI50: 17.4 µM
  TGI: 39.5 µM
SK-OV-3 ovarian
  GI50: 20 µM
  TGI: 40.8 µM
HCC-2998 colon
  GI50: 17.8 µM
  TGI: 33 µM
SN12C renal
  GI50: 17.2 µM
  TGI: 37.1 µM
KM12 colon
  GI50: 14 µM
  TGI: 28.1 µM
NCI-H226 lung
  GI50: 17.7 µM
  TGI: 42.9 µM
MOLT-4 leukemia
  GI50: 28.7 µM
  TGI: > 100 µM
OVCAR-5 ovarian
  GI50: 16.8 µM
  TGI: 32.9 µM
OVCAR-3 ovarian
  GI50: 4.95 µM
  TGI: 17.9 µM
LOX IMVI melanoma
  GI50: 10.8 µM
  TGI: 28.8 µM
RPMI-8226 leukemia
  GI50: 10.6 µM
  TGI: 51.7 µM
NCI-H460 lung
  GI50: 20.8 µM
  TGI: 53.5 µM
T-47D breast
  GI50: 19.9 µM
  TGI: 64.1 µM
MCF7 breast
  GI50: 14.8 µM
  TGI: 37.6 µM
EKVX NSCLC
  GI50: 16.9 µM
  TGI: 34.4 µM
NCI/ADR-RES ovarian
  GI50: 18 µM
  TGI: 44.6 µM
SNB-19 CNS
  GI50: 35.5 µM
  TGI: > 100 µM
DU-145 prostate
  GI50: 16.6 µM
  TGI: 35.7 µM
U251 CNS
  GI50: 17.7 µM
  TGI: 36.6 µM
MDA-MB-231 breast
  GI50: 14.5 µM
  TGI: 34.5 µM
MDA-MB-435
  GI50: 13 µM
  TGI: 27.8 µM
IGROV1 ovarian
  GI50: 5.56 µM
  TGI: 21.2 µM
UACC-62 melanoma
  GI50: 14.7 µM
  TGI: 29 µM
A549 NSCLC
  GI50: 20.3 µM
  TGI: 54.5 µM
HCT-116 colon
  GI50: 3.78 µM
  TGI: 18 µM
SF-295 CNS
  GI50: 22.5 µM
  TGI: 72.7 µM
CAKI-1 renal
  GI50: 12.3 µM
  TGI: 27.2 µM
SNB-75 CNS
  GI50: 18.9 µM
  TGI: 42.2 µM
TK-10 renal
  GI50: 0.656 µM
  TGI: 3.64 µM
786-0 renal
  GI50: 14.2 µM
  TGI: 28.6 µM
OVCAR-8 ovarian
  GI50: 18 µM
  TGI: 51 µM
HL-60(TB) leukemia
  GI50: > 100 µM
  TGI: > 100 µM
SK-MEL-2 melanoma
  GI50: 3.61 µM
  TGI: 16.8 µM
HS 578T breast
  GI50: 21.6 µM
  TGI: 57.8 µM
SK-MEL-5 melanoma
  GI50: 13.4 µM
  TGI: 28.7 µM
ACHN renal
  GI50: 17.7 µM
  TGI: 33.2 µM
HOP-62 NSCLC
  GI50: 13.5 µM
  TGI: 29.9 µM
RXF 393 renal
  GI50: 5.68 µM
  TGI: 30.1 µM
SF-268 CNS
  GI50: 16.9 µM
  TGI: 41.6 µM
NCI-H522 lung
  GI50: 3.29 µM
  TGI: 17.3 µM
COLO 205 colon
  GI50: 32 µM
  TGI: > 100 µM
HCT-15 colon
  GI50: 15.2 µM
  TGI: 33.6 µM
BT-549 breast
  GI50: 13.4 µM
  TGI: 30.4 µM
A498 renal
  GI50: 16.4 µM
  TGI: 32.8 µM
CCRF-CEM leukemia
  GI50: 20.6 µM
  TGI: 39.1 µM
PC-3 prostate
  GI50: 17.5 µM
  TGI: 38.2 µM
HT29 colon
  GI50: 31 µM
  TGI: > 100 µM
SK-MEL-28 melanoma
  GI50: 17.1 µM
  TGI: 37.7 µM
UACC-257 melanoma
  GI50: 18.6 µM
  TGI: 40.4 µM
K-562 leukemia
  GI50: 50.5 µM
  TGI: > 100 µM
M14 melanoma
  GI50: 10 µM
  TGI: 24.8 µM
UO-31 renal
  GI50: 9.84 µM
  TGI: 26.9 µM
OVCAR-4 ovarian
  GI50: 19 µM
  TGI: 42.2 µM

## CCCCC(CCCC)=NNC(=S)SC
SF-539 CNS
  TGI: 67 µM
SW-620 colon
  TGI: > 100 µM
SK-OV-3 ovarian
  TGI: > 100 µM
HCC-2998 colon
  TGI: 54.4 µM
SN12C renal
  TGI: > 100 µM
NCI-H226 lung
  TGI: 57.6 µM
MOLT-4 leukemia
  TGI: 43.6 µM
OVCAR-5 ovarian
  TGI: > 100 µM
LOX IMVI melanoma
  TGI: > 100 µM
NCI-H460 lung
  TGI: > 100 µM
T-47D breast
  TGI: 74.1 µM
MCF7 breast
  TGI: > 100 µM
EKVX NSCLC
  TGI: > 100 µM
NCI/ADR-RES ovarian
  TGI: > 100 µM
SNB-19 CNS
  TGI: > 100 µM
DU-145 prostate
  TGI: > 100 µM
U251 CNS
  TGI: > 100 µM
MDA-MB-231 breast
  TGI: > 100 µM
MDA-MB-435
  TGI: 47 µM
UACC-62 melanoma
  TGI: 57.8 µM
A549 NSCLC
  TGI: > 100 µM
HCT-116 colon
  TGI: 38.6 µM
SNB-75 CNS
  TGI: > 100 µM
TK-10 renal
  TGI: 69.1 µM
786-0 renal
  TGI: > 100 µM
OVCAR-8 ovarian
  TGI: 44.4 µM
HL-60(TB) leukemia
  TGI: 50.2 µM
SK-MEL-2 melanoma
  TGI: > 100 µM
HS 578T breast
  TGI: > 100 µM
SK-MEL-5 melanoma
  TGI: 39.3 µM
ACHN renal
  TGI: > 100 µM
HOP-62 NSCLC
  TGI: > 100 µM
RXF 393 renal
  TGI: > 100 µM
SF-268 CNS
  TGI: > 100 µM
NCI-H522 lung
  TGI: 48.8 µM
COLO 205 colon
  TGI: > 100 µM
HCT-15 colon
  TGI: > 100 µM
MALME-3M melanoma
  TGI: 37.4 µM
NCI-H23 lung
  TGI: > 100 µM
BT-549 breast
  TGI: > 100 µM
A498 renal
  TGI: > 100 µM
PC-3 prostate
  TGI: > 100 µM
HT29 colon
  TGI: > 100 µM
SK-MEL-28 melanoma
  TGI: > 100 µM
UACC-257 melanoma
  TGI: 75.7 µM
K-562 leukemia
  TGI: > 100 µM
HOP-92 NSCLC
  TGI: > 100 µM
M14 melanoma
  TGI: 44.3 µM
UO-31 renal
  TGI: > 100 µM
OVCAR-4 ovarian
  TGI: 66.3 µM
